Measured values published in patent publication US20050053668A1, “Skeletally targeted nanoparticles” (Southwest Research Institute, priority 2003, published 2005).

How the values were obtained:
[1] = system: panel of tumor cells; settings: cited from earlier work
[2] = system: myeloma cell; settings: in vitro; cited from earlier work
[3] = cited from earlier work
[4] = type: physicochemical
Method: Lovastatin was encapsulated in MBP-lipid conjugate micelles at ratios ranging from about 1:1 to 1:50 mol:mol lovastatin:lipid using the phase separation technique. All preparations initially produced clear, colorless solutions, indicating complete solubilization of lovastatin by the lipid. However, over time, usually within about 24 hours, needle-like crystals were observed on the surface of the fluid. […] The crystals were confirmed to be lovastatin by HPLC analysis.

[5] = system: unloaded bones; settings: infusion; cited from earlier work
[6] = system: hindlimb unloaded rats; settings: cited from earlier work

CC(C)C[C@H](NC(=O)[C@H](Cc1ccccc1)NC(=O)c1cnccn1)B(O)O [PS-341]
cytotoxicity [1]: cytotoxic | inhibition of myeloma cell growth and survival [2]: potent inhibitor | side-effects in clinical use [3]: thrombocytopenia, peripheral neuropathy, hypotension, and, in severe cases, cardiovascular toxicity

CC[C@H](C)C(=O)O[C@H]1C[C@@H](C)C=C2C=C[C@H](C)[C@H](CC[C@@H]3C[C@@H](O)CC(=O)O3)[C@H]21 [lovastatin]
amount of stabilized lovastatin after ageing [4]: increased slightly | lovastatin stabilized in micelles [4]: about 0.03 μg/μg of lipid | lovastatin stabilized in micelles, molar ratio [4]: ~1:5 mol:mol lovastatin:lipid | lovastatin encapsulated before free drug precipitates ([4]; micelles of MBP-based ligand-phospholipid conjugate, FIG. 9): about 0.03 μg of lovastatin/μg of lipid | time until needle-like lovastatin crystals were observed ([4]; preparations 1:1 to 1:50 mol:mol lovastatin:lipid): ≤ 24 h

IGF-1: insulin-like growth factor, regulates bone formation
dose required to demonstrate any protective effect against unloading [5]: 2 mg/kg/day

TGF-β
effect on bone formation in control animals ([6]; infusion 2 μg/kg/day, control animals): has no effect on bone formation | effect on unloading-induced bone changes ([6]; infusion 2 μg/kg/day, hindlimb unloading in rats): corrects the decrease in bone mass, calcium content, osteoblast number and mineralization rate | effect on indices of bone resorption ([6]; infusion, normal and unloaded rats): decreases the indices of bone resorption
